Data from publication PMC3495945, “Org 214007-0: A Novel Non-Steroidal Selective Glucocorticoid Receptor Modulator with Full Anti-Inflammatory Properties and Improved Therapeutic Index” (PLoS ONE, 2012).
Like-named read-outs stand apart in the source and are kept apart here.

Legend:
[1] = system: coronary artery smooth muscle cells; assay: BioMAP assay CASM3C; assay type: cell-based, human; conditions: 1 μM, prednisolone = 100%
Experimental: Next, effects of Org 214007-0 on the cytokine release by primary human whole blood cells treated with either LPS or anti-CD28/PMA were tested. […] These assays make use of different types of primary human cells, in this case coronary artery smooth muscle cells and neonatal foreskin fibroblasts, in an inflammatory environment, [28]. […] When all repressed and induced proteins are taken into account, a relative TI value for Org 214007-0 could be deduced of 1.7 in coronary artery smooth muscle cells and of 2.2 in neonatal foreskin fiboblasts.

[2] = system: hepatic glucose metabolism; assay: Mouse MIDA model for liver glucose metabolism; assay type: in vivo; conditions: prednisolone 10 mg/kg, Org 214007-0 1.5 mg/kg; for glucokinase flux rate / gluconeogenic flux (de novo synthesis of glucose-6-phosphate) / glucose-6-phosphatase flux / glycogen phosphorylase flux / glycogen synthase flux rate / liver glucose balance / liver glycogen balance / metabolic clearance rate of blood glucose: 7 days p.o.; for fasting blood glucose levels vs vehicle: oral daily 7 days
Experimental: Eighteen hours after the last oral treatment and 9 hours after start of starvation, blood samples were taken from the tail vein and directly used for glucose measurements using “One touch Ultra” glucose meter from Lifescan EuroFlash (Lifescan Benelux Beerse, Belgium). The mouse MIDA study was performed as described previously by van Dijk et al., [52]. […] On the third day, mice were cannulated in the right jugular vein. After 7 days of treatment, mice were placed in small Plexiglas cages, which allowed collection of blood samples frequently in freely moving mice. Twenty four hours after the final dose and after a 9 hours starving period, a tail vein blood sample was used for a glucose measurement after which mice were shortly anesthetized to attach the infusion lines before the experiment. Filter paper was placed under the wired floor cages to collect urine samples and replaced hourly. Mice received an infusion of a sterilized aqueous solution containing [U-^13C]glucose (13 μmol/ml), [2-^13C]glycerol (160 μmol/ml), [1-^2H]galactose (33 μmol/ml) and paracetamol (1 mg/ml) at a rate of 0.54 ml/hr for 6 hours. During the experiment blood glucose was measured and blood spots for GCMS measurements were collected from tail tips just before the start of the infusion and at hourly intervals. Blood spots and urine filter papers were air-dried and stored at room temperature until analysis. Glucose and paracetamol-glucuronic acid (Par-GLcUa) were extracted from blood spot and urine filter papers, respectively, derivatised, and measured by GC-MS, essentially as described previously, [52]. The fractional isotopomer distribution according to GC-MS was corrected for fractional distribution due to the natural abundance of ^13C by multiple linear regression to obtain the excess mole fraction of mass isotopomers M0-M6 due to incorporation of infused labeled carbohydrates. From isotope dilution and infusion rates, the flux rates of the following metabolic pathways could be calculated: 1) de novo synthesis of G6P, 2) glucokinase, 3) glucose-6-phosphatase, 4) glycogenolysis, and 5) glycogen synthesis. The method of calculation was performed as described before, [52], [53].

[3] = system: murine collagen-induced arthritis (CIA) model; conditions: for disease score (arthritis score): oral, once daily 3 weeks, therapeutic
Experimental: At day 0 mice were immunized at the base of the tail with 100 μg bovine type II collagen (UMC Nijmegen, The Netherlands) in Complete Freund's Adjuvant (CFA, Difco) enriched with 2 mg/ml Mycobacterium tuberculosis H37RA (Difco). At day 21 mice were boosted by an i.p. injection of 100 μg bovine type II collagen dissolved in saline. After disease onset, mice with an arthritis score ranging from 0.25 to 1.25 were divided into matched groups (n = 12). […] The clinical severity of arthritis (arthritis score) was graded and scored as described [51]. To assess the effects of treatments, the area under the curve (AUC) of arthritis score (subtracting baseline AUC of arthritis score on day 0) was used. One day after the final treatment animals were sacrificed and the knee and ankle joints were imaged using a Faxitron X-ray, Modl MX-20 digital imaging system and analysed using Specimen (Version 2.0.1). The bone destruction was scored on a scale of 0–5 as described previously [51]. The cumulative scores of 2 joints (right ankle and knee) were used as radiological scores. From H&H-stained sections, articular cartilage destruction and inflammatory infiltrate in the right knee joint were scored on a scale of 0–3. The whole study was carried out in a blinded fashion. Statistical analysis was performed using one-way ANOVA.

[4] = system: THP-1 cells; assay: Gene expression profiling (microarray) in THP-1 cells; assay type: cell-based, human; conditions: THP-1, 1 μM, 6 hours, top 25 genes, prednisolone set at 100%; for Max. eff., mean repression of genes, microarray: IFNγ/TNFα; for Max. eff., mean induction of genes, microarray: non-stimulated
Experimental: THP-1 cells were incubated with glucocorticoid in the presence of either DMSO (control) or IFNγ/TNFα (220 ng/ml/375 ng/ml). After 6 hours total RNA was isolated and further processed for microarray hybridization as described for the HepG2 cells. The data from all microarray experiments have been deposited in the NCBI Gene Expression Omnibus (GEO) under accession number (identifier will be included in proof). […] Expression of FKBP51, MCP-1, IL-6 and IL-8 protein was measured by specific […]; #A[…] [MCP-1], #A[…] [IL-6] and #A[…] [IL-8]) according to the manufacturer manual. […] Expression of FKBP51, DUSP1 and GILZ was measured by Q-PCR according to the same procedure as described for the HepG2 cells. In this case the following primer-pairs were used: for GAPDH: [NT] and [NT]; for FKBP51: [NT] and [NT]; for DUSP1: [NT] and [NT]; for GILZ: [NT] and [NT]. For the evaluation of protein expression, cells were incubated overnight with a whole dose range of compounds. Supernatants were collected to determine cytokine levels and cell lysates were generated by repeated freeze-thaw cycles to measure expression of FKBP51 protein. Expression of FKBP51, MCP-1, IL-6 and IL-8 was measured by specific […]; #A[…] [MCP-1], #A[…] [IL-6] and #A[…] [IL-8]) according to the manufacturer manual. […] Samples were incubated for 60 min at 23 C. […] Plates were measured using an EnVision-Alpha Reader.

[5] = system: primary human whole blood cells; assay: Human whole blood PMA/anti-CD28-induced cytokine release; assay type: cell-based; conditions: for IC50: read-out: IC50, PMA/anti-CD28-induced IL-5 release
Description: Hereafter, supernatant was carefully collected and tested at the most optimal dilution (predetermined by a titration study on control samples) in a human TNFα-specific ELISA (for the LPS stimulated samples) or in a human IL-5-specific or human G-CSF-specific ELISA (for the PMA/anti-CD28 stimulated samples) (Duoset, R&D systems USA).

[6] = biological target: T1, His-GR-LBD (F602S mutated) (Homo sapiens, UniProt P04150, F602S); assay: Co-factor-peptide (TIF2-3) recruitment assay; assay type: biochemical; conditions: for Emax: read-out: percentage maximal efficacy (%CV), recruitment of TIF2-3 peptide
T1 construct: E. coli produced His-GR-LBD (F602S mutated) at 10 nM; made in house; host or cells: E. coli
T1 sequence (P04150 524-758 F602S limits assumed): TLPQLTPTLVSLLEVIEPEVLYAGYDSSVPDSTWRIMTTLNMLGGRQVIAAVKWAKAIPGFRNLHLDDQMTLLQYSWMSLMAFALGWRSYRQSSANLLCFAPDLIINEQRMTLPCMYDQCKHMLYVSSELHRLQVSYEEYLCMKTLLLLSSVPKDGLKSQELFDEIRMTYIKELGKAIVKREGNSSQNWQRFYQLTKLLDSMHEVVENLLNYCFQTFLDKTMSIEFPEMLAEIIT
Experimental: Hereafter, peptide, representing Transcriptional Intermediary Factor 2 – LXXLL motif 3 (TIF2-3) at 100 nM (final concentration), streptavidin-APC (8 nM, final concentration) and anti-His-Eu (1.25 nM final concentration) were added to a total volume of 50 μL/well and incubation at 4°C was continued for another 20 hours. Fluorescence was measured using Tecan Infinite M1000 and data were analysed by GraphPad Prism.

[7] = human whole blood, P/28, prednisolone = 100%

Row | Compound | Max. eff., induction of serum amyloid A (SAA) [1] [%] | glucokinase flux rate [2] | gluconeogenic flux (de novo synthesis of glucose-6-phosphate) [2] | glucose-6-phosphatase flux [2] | glycogen phosphorylase flux [2] | glycogen synthase flux rate [2] | liver glucose balance [2] | liver glycogen balance [2] | metabolic clearance rate of blood glucose [2] | fasting blood glucose levels vs vehicle [2] | disease score (arthritis score) [3] | Max. eff., mean repression of genes, microarray [4] [%] | Max. eff., IL-5 repression [5, 7] | Emax [6] [%] | further results
1 | Cc1nnsc1C(=O)N[C@H]1CCN2c3ccc(C#N)cc3[C@@H](C)c3ccccc3[C@@H]2C1 [Org 214007-0] | 58 | no significant effects | Neither Org 214007-0 nor prednisolone, at equi-efficacious dosages, effects | Neither the glucose-6-phosphatase flux (A) nor the glycogen phosphorylase flux (B) were affected | Neither the glucose-6-phosphatase flux (A) nor the glycogen phosphorylase flux (B) were affected | no significant effects | not affected | not effected | Neither Org 214007-0 nor prednisolone, at equi-efficacious dosages, effects | did not affect | dose-dependent reduction | 48.3 | 64 (±11) % | 67 | disease symptoms ([3]; 1.5 mg/kg/day oral): total suppression; bone damage by X-ray on knees and paws ([3]; 0.5 and 1.5 mg/kg/day, end of study): significant reduction; potency relative to prednisolone ([3]; CIA, oral once daily): about 3 fold; histopathology of knee joints: inflammatory infiltrates, cartilage destruction, bone apposition ([3]; two highest doses (0.5 and 1.5 mg/kg/day)): significant reduction; Max. eff., mean induction of genes, microarray ([4]; listed as Org): 18.9%; EC50 ([5]; Whole blood cell, human whole blood, 24 hours, read-out: EC50, enhancement of PMA/anti-CD28-induced G-CSF release): 186 nM; IC50 ([5]; Whole blood cell, human whole blood, 24 hours): 14.4 nM; Max. eff., G-CSF induction [5, 7]: 39 (±7.8) %; EC50 ([6]; 0.1 μM peptide, read-out: EC50 (%CV), recruitment of TIF2-3 peptide): 10 nM
2 | C[C@]12C=CC(=O)C=C1CC[C@@H]1[C@@H]2[C@@H](O)C[C@@]2(C)[C@H]1CC[C@]2(O)C(=O)CO [prednisolone, reference compound] | 100 | significantly decreased | no change | Neither the glucose-6-phosphatase flux (A) nor the glycogen phosphorylase flux (B) were affected | Neither the glucose-6-phosphatase flux (A) nor the glycogen phosphorylase flux (B) were affected | significantly decreased | significantly changed | significantly changed | Neither Org 214007-0 nor prednisolone, at equi-efficacious dosages, effects | significantly elevated | dose-dependent reduction | 100 | 100% | 100 | Max. eff., mean induction of genes, microarray [4]: 100%; IC50 ([5]; Homo sapiens, Whole blood cell, 24 h): 6.76 nM
